Experimental data taken from ChEMBL document CHEMBL1201862, “PubChem BioAssay data set” (2004).
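A five-concentration, 48-hour dose response in 96-well plates underlies each endpoint, interpolated linearly between surrounding concentrations. GI50: concentration for 50% inhibition of growth.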 Calls of active or inactive are those of the source. No stated cut-off is given here; in the data, active = GI50 up to about 1.1 µM and inactive = higher. Where a SMILES comes first, the peptide text is derived from it. The star is where a group is joined. Boc = CC(C)(C)OC(=O)*; OBn = c1ccc(CO*)cc1

Key:
Test in all cases: NCI anticancer screen, dose series, 48 h
M14 = tested on: M14
OVCAR-8 = tested on: OVCAR-8
SK-OV-3 = tested on: SK-OV-3
CCRF-CEM = tested on: CCRF-CEM
COLO 205 = tested on: COLO 205
SF-295 = tested on: SF-295
OVCAR-4 = tested on: OVCAR-4
EKVX = tested on: EKVX
NCI-H522 = tested on: NCI-H522
SW-620 = tested on: SW-620
K562 = tested on: K562
OVCAR-5 = tested on: OVCAR-5
TK-10 = tested on: TK-10
RPMI-8226 = tested on: RPMI-8226
A549 = tested on: A549
IGROV-1 = tested on: IGROV-1
SK-MEL-5 = tested on: SK-MEL-5
SNB-19 = tested on: SNB-19
MDA-MB-435 = tested on: MDA-MB-435
PC-3 = tested on: PC-3

Row | SMILES | GI50 (M14) | GI50 (OVCAR-8) | GI50 (SK-OV-3) | GI50 (CCRF-CEM) | GI50 (COLO 205) | GI50 (SF-295) | GI50 (OVCAR-4) | GI50 (EKVX) | GI50 (NCI-H522) | GI50 (SW-620) | GI50 (K562) | GI50 (OVCAR-5) | GI50 (TK-10) | GI50 (RPMI-8226) | GI50 (A549) | GI50 (IGROV-1) | GI50 (SK-MEL-5) | GI50 (SNB-19) | GI50 (MDA-MB-435) | GI50 (PC-3)
1 | [O-]c1c2c(nn1-c1ccccc1)c1ccccc1c[n+]2Cc1ccccc1 | > 100 µM (inactive) | > 100 µM (inactive) | > 100 µM (inactive) | > 100 µM (inactive) | > 100 µM (inactive) | > 100 µM (inactive) | 78 µM (inactive) | > 100 µM (inactive) | 73.6 µM (inactive) | > 100 µM (inactive) | > 100 µM (inactive) | > 100 µM (inactive) | > 100 µM (inactive) | > 100 µM (inactive) | > 100 µM (inactive) | > 100 µM (inactive) | > 100 µM (inactive) | > 100 µM (inactive) | – | –
2 | N#C/C(=C/NC(N)=S)C(N)=O | > 100 µM (inactive) | > 100 µM (inactive) | > 100 µM (inactive) | – | > 100 µM (inactive) | > 100 µM (inactive) | > 100 µM (inactive) | > 100 µM (inactive) | – | > 100 µM (inactive) | – | > 100 µM (inactive) | > 100 µM (inactive) | – | > 100 µM (inactive) | > 100 µM (inactive) | > 100 µM (inactive) | > 100 µM (inactive) | > 100 µM (inactive) | –
3 | CC1(C)C2CCC(N)(C2)C1O (centres undefined) | > 100 µM (inactive) | > 100 µM (inactive) | > 100 µM (inactive) | > 100 µM (inactive) | > 100 µM (inactive) | > 100 µM (inactive) | > 100 µM (inactive) | > 100 µM (inactive) | – | > 100 µM (inactive) | > 100 µM (inactive) | > 100 µM (inactive) | > 100 µM (inactive) | > 100 µM (inactive) | > 100 µM (inactive) | > 100 µM (inactive) | > 100 µM (inactive) | > 100 µM (inactive) | > 100 µM (inactive) | > 100 µM (inactive)
4 | CC(N)Cc1cccc(C(F)(F)F)c1 (centres undefined) | > 100 µM (inactive) | > 100 µM (inactive) | > 100 µM (inactive) | > 100 µM (inactive) | > 100 µM (inactive) | > 100 µM (inactive) | > 100 µM (inactive) | > 100 µM (inactive) | > 100 µM (inactive) | > 100 µM (inactive) | > 100 µM (inactive) | > 100 µM (inactive) | > 100 µM (inactive) | > 100 µM (inactive) | > 100 µM (inactive) | > 100 µM (inactive) | > 100 µM (inactive) | > 100 µM (inactive) | – | –
5 | Cc1cnoc1NS(=O)(=O)c1ccc(Nc2nnc(/C=C/c3c(O)ccc4ccccc34)c(=O)n2N)cc1 | 25.9 µM (inactive) | 16.4 µM (inactive) | 56.1 µM (inactive) | 10.9 µM (inactive) | – | 64 µM (inactive) | 27.9 µM (inactive) | 35.9 µM (inactive) | – | 32.7 µM (inactive) | 24.2 µM (inactive) | 40.1 µM (inactive) | – | 20.2 µM (inactive) | 35.1 µM (inactive) | 12.8 µM (inactive) | – | 65.2 µM (inactive) | 26.7 µM (inactive) | –
6 | N#Cc1c(Cl)c2ccccc2n2c1nc1ccccc12 | 19.6 µM (inactive) | 21.9 µM (inactive) | 87.9 µM (inactive) | 11.2 µM (inactive) | 23.1 µM (inactive) | 59.7 µM (inactive) | 27.4 µM (inactive) | 19.9 µM (inactive) | – | 29.1 µM (inactive) | 18.9 µM (inactive) | > 100 µM (inactive) | 19.4 µM (inactive) | 31.3 µM (inactive) | > 100 µM (inactive) | 13.9 µM (inactive) | – | 74.6 µM (inactive) | 56.1 µM (inactive) | 31 µM (inactive)
7 | O=C1CCC2=C(CCC2)N1CCc1ccc2c(c1)OCO2 | 92.9 µM (inactive) | > 10 µM (inactive) | > 100 µM (inactive) | 29.2 µM (inactive) | 60.3 µM (inactive) | 55.3 µM (inactive) | > 100 µM (inactive) | 47 µM (inactive) | 61.1 µM (inactive) | > 100 µM (inactive) | 25.7 µM (inactive) | 42.6 µM (inactive) | 76.9 µM (inactive) | < 0.01 µM (active) | 62.1 µM (inactive) | 58.7 µM (inactive) | 24.5 µM (inactive) | 81.7 µM (inactive) | – | 32.5 µM (inactive)
8 | O=c1[nH]c(=O)n(C2CC(O)C(CO)O2)cc1C1=NC1 (centres undefined) | > 100 µM (inactive) | > 100 µM (inactive) | > 100 µM (inactive) | – | > 100 µM (inactive) | > 100 µM (inactive) | > 100 µM (inactive) | > 100 µM (inactive) | – | > 100 µM (inactive) | – | > 100 µM (inactive) | > 100 µM (inactive) | 50.6 µM (inactive) | > 100 µM (inactive) | > 100 µM (inactive) | > 100 µM (inactive) | > 100 µM (inactive) | > 100 µM (inactive) | –
9 | O=C(/C=C/c1ccccc1)CC(=O)CCC(=O)Nc1ccc(Cl)cc1 | 28.3 µM (inactive) | > 100 µM (inactive) | > 100 µM (inactive) | > 100 µM (inactive) | > 100 µM (inactive) | > 100 µM (inactive) | > 100 µM (inactive) | > 100 µM (inactive) | > 100 µM (inactive) | > 100 µM (inactive) | 5.58 µM (inactive) | > 100 µM (inactive) | > 100 µM (inactive) | > 100 µM (inactive) | > 100 µM (inactive) | 86.1 µM (inactive) | > 100 µM (inactive) | > 100 µM (inactive) | – | –
10 | O=[N+]([O-])/C(C(Cl)=C(Cl)Cl)=C1\NCCS1 | 46.9 µM (inactive) | 47.2 µM (inactive) | > 100 µM (inactive) | 19.1 µM (inactive) | 40.1 µM (inactive) | > 100 µM (inactive) | 29.1 µM (inactive) | > 100 µM (inactive) | – | 56 µM (inactive) | 18.8 µM (inactive) | > 100 µM (inactive) | > 100 µM (inactive) | 19 µM (inactive) | > 100 µM (inactive) | 62.4 µM (inactive) | > 100 µM (inactive) | > 100 µM (inactive) | 35.8 µM (inactive) | 35.6 µM (inactive)
11 | O=c1oc2ccccc2n1CCCn1c(=O)oc2ccccc21 | > 100 µM (inactive) | > 100 µM (inactive) | > 100 µM (inactive) | > 100 µM (inactive) | > 100 µM (inactive) | > 100 µM (inactive) | – | > 100 µM (inactive) | – | > 100 µM (inactive) | > 100 µM (inactive) | > 100 µM (inactive) | > 100 µM (inactive) | > 100 µM (inactive) | – | > 100 µM (inactive) | > 100 µM (inactive) | > 100 µM (inactive) | > 100 µM (inactive) | > 100 µM (inactive)
12 | COc1cc2oc(=O)cc(C)c2c(OC)c1O | > 100 µM (inactive) | > 100 µM (inactive) | > 100 µM (inactive) | > 100 µM (inactive) | > 100 µM (inactive) | > 100 µM (inactive) | > 100 µM (inactive) | > 100 µM (inactive) | – | > 100 µM (inactive) | > 100 µM (inactive) | > 100 µM (inactive) | > 100 µM (inactive) | > 100 µM (inactive) | > 100 µM (inactive) | > 100 µM (inactive) | > 100 µM (inactive) | > 100 µM (inactive) | > 100 µM (inactive) | > 100 µM (inactive)
13 | COC(=O)C(Cc1ccccc1)NC(=O)CSc1nnc(COc2ccc(Cl)cc2)n1-c1ccccc1 (centres undefined) | 20.2 µM (inactive) | – | 15.8 µM (inactive) | 16.8 µM (inactive) | 20.4 µM (inactive) | – | 21.4 µM (inactive) | – | – | 35.9 µM (inactive) | 27.4 µM (inactive) | 24.8 µM (inactive) | 19.4 µM (inactive) | 20.5 µM (inactive) | 39.4 µM (inactive) | 27.5 µM (inactive) | 17.1 µM (inactive) | 49.9 µM (inactive) | 19.1 µM (inactive) | 22.8 µM (inactive)
14 | Cc1ccc(N/C(=C(/C(Cl)=C(Cl)Cl)[N+](=O)[O-])n2nnc3ccccc32)cc1 | 16.6 µM (inactive) | 18.8 µM (inactive) | 17.1 µM (inactive) | 7.06 µM (inactive) | 15.1 µM (inactive) | 20.1 µM (inactive) | 18.7 µM (inactive) | 19.1 µM (inactive) | – | 20.7 µM (inactive) | 23.6 µM (inactive) | 20.1 µM (inactive) | – | 20.2 µM (inactive) | 19.5 µM (inactive) | – | – | 18.3 µM (inactive) | 20.1 µM (inactive) | 17.5 µM (inactive)
15 | Cc1ccc2c(c1)c(=O)c1c(NCCN(C)C)ccc3nnn2c31 | 4.25 µM (inactive) | 2.98 µM (inactive) | 3.56 µM (inactive) | 2.21 µM (inactive) | 1.9 µM (inactive) | 1.33 µM (inactive) | 3.6 µM (inactive) | 3.64 µM (inactive) | 4.81 µM (inactive) | 1.57 µM (inactive) | 2.91 µM (inactive) | 2.59 µM (inactive) | 3.95 µM (inactive) | 2.36 µM (inactive) | 2.83 µM (inactive) | 4.33 µM (inactive) | 3.06 µM (inactive) | 6.34 µM (inactive) | – | –
16 | CC(C)CC(NC(=O)OC(C)(C)C)C(=O)N1CCCC1C(=O)OCc1ccccc1 (stereo not drawn) (Boc-Leu-Pro-OBn; configuration not given here) | 99.3 µM (inactive) | > 100 µM (inactive) | > 100 µM (inactive) | – | > 100 µM (inactive) | > 100 µM (inactive) | > 100 µM (inactive) | > 100 µM (inactive) | > 100 µM (inactive) | > 100 µM (inactive) | 35.2 µM (inactive) | > 100 µM (inactive) | > 100 µM (inactive) | – | > 100 µM (inactive) | > 100 µM (inactive) | > 100 µM (inactive) | > 100 µM (inactive) | > 100 µM (inactive) | > 100 µM (inactive)
